Assay results taken from patent publication US12594268B2, “Methods of treating Fabry disease in patients having a mutation in the GLA gene” (Amicus Therapeutics, Inc., priority 2018, dated 2026).
Changes are numbered by the printed parent chain.

Assays:
Assay type in all cases: cell-based
[1] = target: T1, α-Gal A mutant form Q57R (Homo sapiens, UniProt P06280, Q57R); test: α-Gal A activity in lysates of transfected HEK-293 cells, Q57R
T1 construct: expressed in transfected cells; host or cells: HEK-293
T1 sequence (P06280 32-429 Q57R): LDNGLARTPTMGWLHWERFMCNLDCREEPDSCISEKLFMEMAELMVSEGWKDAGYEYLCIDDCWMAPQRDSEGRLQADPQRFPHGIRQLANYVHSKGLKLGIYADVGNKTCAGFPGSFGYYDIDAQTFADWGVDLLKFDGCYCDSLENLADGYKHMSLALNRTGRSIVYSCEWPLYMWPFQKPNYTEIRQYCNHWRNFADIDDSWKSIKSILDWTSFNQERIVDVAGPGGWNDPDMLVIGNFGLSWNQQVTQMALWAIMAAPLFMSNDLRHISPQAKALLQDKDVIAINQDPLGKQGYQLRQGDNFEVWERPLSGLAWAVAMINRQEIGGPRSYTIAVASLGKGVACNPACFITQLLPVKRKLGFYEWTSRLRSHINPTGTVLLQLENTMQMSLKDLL
Method: (§1) Baseline and 10 μM migalastat α-Gal A activity: Differences in the α-Gal A activity between lysates incubated in the absence and presence of 10 μM migalastat were determined using a one-tailed, Mann Whitney U test; an increase at 10 μM migalastat with a p<0.05 was considered significant.
(§2) 10 μM migalastat α-Gal A activity (% WT)=(α-Gal A activity in mutant transfected cell lysates incubated with 10 μM migalastat÷α-Gal A activity in wild-type transfected cell lysates without migalastat)*100.
(§3) Absolute increase (% WT)=is the 10 μM migalastat α-Gal A activity (% WT) minus the baseline α-Gal A activity (% WT).
(§4) Relative increase is the 10 μM migalastat α-Gal A activity in mutant transfected cell lysates÷baseline α-Gal A activity in mutant transfected cell lysates incubated without migalastat.

[2] = target: T2, α-Gal A mutant form Y152D (Homo sapiens, UniProt P06280, Y152D); test: α-Gal A activity in lysates of transfected HEK-293 cells, Y152D
T2 construct: expressed in transfected cells; host or cells: HEK-293
T2 sequence (P06280 32-429 Y152D): T1 sequence (P06280 32-429 Q57R) with R26Q, Y121D
Method: as §1, §2, §3, §4

[3] = target: T3, α-Gal A mutant form S238G (Homo sapiens, UniProt P06280, S238G); test: α-Gal A activity in lysates of transfected HEK-293 cells, S238G
T3 construct: expressed in transfected cells; host or cells: HEK-293
T3 sequence (P06280 32-429 S238G): T1 sequence (P06280 32-429 Q57R) with R26Q, S207G
Method: as §1, §2, §3, §4

[4] = target: T4, α-Gal A mutant form N228D (Homo sapiens, UniProt P06280, N228D); test: α-Gal A activity in lysates of transfected HEK-293 cells, N228D
T4 construct: expressed in transfected cells; host or cells: HEK-293
T4 sequence (P06280 32-429 N228D): T1 sequence (P06280 32-429 Q57R) with R26Q, N197D
Method: as §1, §2, §3, §4

[5] = target: T5, α-Gal A mutant form I239M (Homo sapiens, UniProt P06280, I239M); test: α-Gal A activity in lysates of transfected HEK-293 cells, I239M
T5 construct: expressed in transfected cells; host or cells: HEK-293
T5 sequence (P06280 32-429 I239M): T1 sequence (P06280 32-429 Q57R) with R26Q, I208M
Method: as §1, §2, §3, §4

[6] = 10 μM migalastat minus baseline
[7] = 10 μM migalastat ÷ baseline activity
[8] = HEK-293 lysates, 10 μM migalastat, 5 days, mean ± SEM

OC[C@H]1NC[C@H](O)[C@@H](O)[C@H]1O [migalastat, (2R,3S,4R,5S)-2-(hydroxymethyl) piperdine-3,4,5-triol]
Absolute increase (% WT) [1, 6]: 24.0 % WT
Relative increase [1, 7]: 1.30
10 μM migalastat α-Gal A activity [1, 8]: 26357 ± 916 nmol/mg/h
10 μM migalastat α-Gal A activity (% WT) [1, 8]: 105.0 ± 3.0 % WT
Absolute increase (% WT) [2, 6]: 10.7 % WT
Relative increase [2, 7]: 2.75
10 μM migalastat α-Gal A activity [2, 8]: 6594 ± 294 nmol/mg/h
10 μM migalastat α-Gal A activity (% WT) [2, 8]: 16.7 ± 1.1 % WT
Absolute increase (% WT) [3, 6]: 67.7 % WT
Relative increase [3, 7]: 4.26
10 μM migalastat α-Gal A activity [3, 8]: 25106 ± 1611 nmol/mg/h
10 μM migalastat α-Gal A activity (% WT) [3, 8]: 86.4 ± 7.2 % WT
Absolute increase (% WT) [4, 6]: 48.2 % WT
Relative increase [4, 7]: 4.12
10 μM migalastat α-Gal A activity [4, 8]: 25816 ± 2273 nmol/mg/h
10 μM migalastat α-Gal A activity (% WT) [4, 8]: 63.2 ± 5.4 % WT
Absolute increase (% WT) [5, 6]: 55.5 % WT
Relative increase [5, 7]: 5.12
10 μM migalastat α-Gal A activity [5, 8]: 24827 ± 3056 nmol/mg/h
10 μM migalastat α-Gal A activity (% WT) [5, 8]: 69.3 ± 6.9 % WT
